Measurements taken from ChEMBL document CHEMBL6182889, “Discovery of the first-in-class DOT1L PROTAC degrader” (Eur J Med Chem, 2025).
Calls of active or inactive are those of the source. The calls are words filed in the database; no cut-off is given here.

Legend:
[1] = target: T1, von Hippel-Lindau disease tumor suppressor/Histone-lysine N-methyltransferase, H3 lysine-79 specific (Homo sapiens, UniProt Q8TEK3+P40337); assay: PROTAC activity at VHL/DOTIL in mixed-lineage leukemia rearranged (MLL-r) human THP-1 cells assessed as induction of DOT1L degradation by measuring fold change in DOTIL protein level at 3 uM incubated for 24 hrs by western blot analysis relative to control; format: cell-based
[2] = target: T1, von Hippel-Lindau disease tumor suppressor/Histone-lysine N-methyltransferase, H3 lysine-79 specific; assay: PROTAC activity at VHL/DOT1L in mixed-lineage leukemia rearranged (MLL-r) human MV4-11 cells assessed as maximal induction of DOT1L degradation incubated for 24 hrs by western blot analysis relative to control; format: cell-based
[3] = target: T1, von Hippel-Lindau disease tumor suppressor/Histone-lysine N-methyltransferase, H3 lysine-79 specific; assay: PROTAC activity at VHL/DOT1L in mixed-lineage leukemia rearranged (MLL-r) human THP-1 cells assessed as induction of DOTIL degradation by measuring fold change in H3K79Me2 level at 3 uM incubated for 1 hr by western blot analysis relative to control; format: cell-based
[4] = target: T1, von Hippel-Lindau disease tumor suppressor/Histone-lysine N-methyltransferase, H3 lysine-79 specific; assay: PROTAC activity at VHL/DOT1L in mixed-lineage leukemia rearranged (MLL-r) human THP-1 cells assessed as induction of DOTIL degradation by measuring fold change in H3K79Me2 level at 3 uM incubated for 8 hrs by western blot analysis relative to control; format: cell-based
[5] = target: T1, von Hippel-Lindau disease tumor suppressor/Histone-lysine N-methyltransferase, H3 lysine-79 specific; assay: PROTAC activity at VHL/DOT1L in mixed-lineage leukemia rearranged (MLL-r) human MV4-11 cells assessed as induction of DOTIL degradation by measuring fold change in DOT1L protein level at 3 uM incubated for 2 hrs by western blot analysis relative to control; format: cell-based
[6] = target: T1, von Hippel-Lindau disease tumor suppressor/Histone-lysine N-methyltransferase, H3 lysine-79 specific; assay: PROTAC activity at VHL/DOT1L in mixed-lineage leukemia rearranged (MLL-r) human MV4-11 cells assessed as induction of DOTIL degradation by measuring fold change in DOT1L protein level at 3 uM incubated for 48 hrs by western blot analysis relative to control; format: cell-based
[7] = target: T1, von Hippel-Lindau disease tumor suppressor/Histone-lysine N-methyltransferase, H3 lysine-79 specific; assay: PROTAC activity at VHL/DOT1L in mixed-lineage leukemia rearranged (MLL-r) human THP-1 cells assessed as induction of DOT1L degradation at 3 uM co-incubated with VHL ligand for 24 hrs by western blot analysis; format: cell-based
[8] = target: Histone-lysine N-methyltransferase, H3 lysine-79 specific (Homo sapiens) (UniProt Q8TEK3); assay: Inhibition of human DOT1L using oligonucleosomes and SAM as substrate at 4.6 nM by radiometric Hotspot assay
[9] = target: T2, Histone-lysine N-methyltransferase EHMT1 (Homo sapiens) (UniProt Q9H9B1); assay: Inhibition of human GLP using Histone H3 and SAM as substrate at 10 uM by radiometric Hotspot assay
T2 sequence (whole entry): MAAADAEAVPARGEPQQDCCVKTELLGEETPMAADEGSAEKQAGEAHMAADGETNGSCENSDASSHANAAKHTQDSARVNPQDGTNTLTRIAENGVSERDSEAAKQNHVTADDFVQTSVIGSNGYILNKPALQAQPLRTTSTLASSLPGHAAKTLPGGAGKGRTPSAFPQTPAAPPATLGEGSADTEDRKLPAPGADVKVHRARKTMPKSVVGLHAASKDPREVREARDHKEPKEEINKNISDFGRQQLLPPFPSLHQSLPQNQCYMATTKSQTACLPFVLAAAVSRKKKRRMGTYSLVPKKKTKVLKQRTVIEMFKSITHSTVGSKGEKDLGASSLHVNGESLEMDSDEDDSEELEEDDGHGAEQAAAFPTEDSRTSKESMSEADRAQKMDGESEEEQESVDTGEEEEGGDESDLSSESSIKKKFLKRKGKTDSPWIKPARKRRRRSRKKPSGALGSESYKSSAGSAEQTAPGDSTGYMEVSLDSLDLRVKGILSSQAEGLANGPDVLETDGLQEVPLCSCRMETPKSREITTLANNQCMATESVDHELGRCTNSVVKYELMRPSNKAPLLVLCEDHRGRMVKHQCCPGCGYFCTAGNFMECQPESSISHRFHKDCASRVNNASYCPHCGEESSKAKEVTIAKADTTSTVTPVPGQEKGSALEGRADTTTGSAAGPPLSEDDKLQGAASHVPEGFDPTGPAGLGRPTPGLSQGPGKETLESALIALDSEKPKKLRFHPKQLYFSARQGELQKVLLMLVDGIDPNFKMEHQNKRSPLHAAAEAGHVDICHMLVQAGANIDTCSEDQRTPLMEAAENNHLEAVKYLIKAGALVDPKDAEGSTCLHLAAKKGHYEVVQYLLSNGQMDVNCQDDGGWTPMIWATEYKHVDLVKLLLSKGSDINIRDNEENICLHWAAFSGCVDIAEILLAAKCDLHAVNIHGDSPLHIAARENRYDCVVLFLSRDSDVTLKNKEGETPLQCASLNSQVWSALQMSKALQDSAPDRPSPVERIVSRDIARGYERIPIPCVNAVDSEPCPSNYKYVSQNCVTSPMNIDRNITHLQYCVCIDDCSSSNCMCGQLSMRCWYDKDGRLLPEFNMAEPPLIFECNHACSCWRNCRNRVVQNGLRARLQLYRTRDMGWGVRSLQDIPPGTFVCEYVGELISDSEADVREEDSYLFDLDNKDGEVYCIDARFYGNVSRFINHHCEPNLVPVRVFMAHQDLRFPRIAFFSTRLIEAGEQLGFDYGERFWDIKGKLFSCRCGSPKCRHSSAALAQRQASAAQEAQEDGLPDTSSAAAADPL

[10] = target: T3, Histone-arginine methyltransferase CARM1 (Homo sapiens) (UniProt Q86X55); assay: Inhibition of human PRMT4 using histone H3 and SAM as substrate at 10 uM by radiometric Hotspot assay
T3 sequence (whole entry): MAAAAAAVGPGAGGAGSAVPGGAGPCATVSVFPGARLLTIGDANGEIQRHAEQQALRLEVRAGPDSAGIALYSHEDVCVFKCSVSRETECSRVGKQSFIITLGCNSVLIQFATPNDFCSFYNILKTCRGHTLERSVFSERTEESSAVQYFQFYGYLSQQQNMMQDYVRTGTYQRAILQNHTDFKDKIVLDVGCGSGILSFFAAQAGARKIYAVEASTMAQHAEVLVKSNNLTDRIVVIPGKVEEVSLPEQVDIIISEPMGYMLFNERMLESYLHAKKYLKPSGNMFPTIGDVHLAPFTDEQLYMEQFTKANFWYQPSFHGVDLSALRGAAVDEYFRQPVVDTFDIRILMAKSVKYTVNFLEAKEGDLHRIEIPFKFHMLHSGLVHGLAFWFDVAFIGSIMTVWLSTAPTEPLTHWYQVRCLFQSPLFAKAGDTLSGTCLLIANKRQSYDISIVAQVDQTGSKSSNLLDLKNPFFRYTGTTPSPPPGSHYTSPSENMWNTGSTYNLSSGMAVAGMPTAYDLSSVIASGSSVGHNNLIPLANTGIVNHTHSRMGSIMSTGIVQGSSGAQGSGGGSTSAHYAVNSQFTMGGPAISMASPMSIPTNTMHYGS

[11] = tested on: PNT2; assay: Cytotoxicity against human PNT2 cells assessed as inhibition of cell growth incubated for 7 days by CCK-8 assay; format: toxicity, cell-based; settings: pnt2, 168 h, time 7 day

T1 sequence (P40337 whole entry, looked up): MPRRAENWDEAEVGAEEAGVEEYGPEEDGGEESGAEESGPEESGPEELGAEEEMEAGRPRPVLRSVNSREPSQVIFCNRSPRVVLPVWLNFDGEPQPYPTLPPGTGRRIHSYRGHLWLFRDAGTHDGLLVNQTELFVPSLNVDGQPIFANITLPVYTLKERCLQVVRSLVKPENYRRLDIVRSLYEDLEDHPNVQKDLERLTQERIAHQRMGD
T1 sequence (Q8TEK3 whole entry, looked up): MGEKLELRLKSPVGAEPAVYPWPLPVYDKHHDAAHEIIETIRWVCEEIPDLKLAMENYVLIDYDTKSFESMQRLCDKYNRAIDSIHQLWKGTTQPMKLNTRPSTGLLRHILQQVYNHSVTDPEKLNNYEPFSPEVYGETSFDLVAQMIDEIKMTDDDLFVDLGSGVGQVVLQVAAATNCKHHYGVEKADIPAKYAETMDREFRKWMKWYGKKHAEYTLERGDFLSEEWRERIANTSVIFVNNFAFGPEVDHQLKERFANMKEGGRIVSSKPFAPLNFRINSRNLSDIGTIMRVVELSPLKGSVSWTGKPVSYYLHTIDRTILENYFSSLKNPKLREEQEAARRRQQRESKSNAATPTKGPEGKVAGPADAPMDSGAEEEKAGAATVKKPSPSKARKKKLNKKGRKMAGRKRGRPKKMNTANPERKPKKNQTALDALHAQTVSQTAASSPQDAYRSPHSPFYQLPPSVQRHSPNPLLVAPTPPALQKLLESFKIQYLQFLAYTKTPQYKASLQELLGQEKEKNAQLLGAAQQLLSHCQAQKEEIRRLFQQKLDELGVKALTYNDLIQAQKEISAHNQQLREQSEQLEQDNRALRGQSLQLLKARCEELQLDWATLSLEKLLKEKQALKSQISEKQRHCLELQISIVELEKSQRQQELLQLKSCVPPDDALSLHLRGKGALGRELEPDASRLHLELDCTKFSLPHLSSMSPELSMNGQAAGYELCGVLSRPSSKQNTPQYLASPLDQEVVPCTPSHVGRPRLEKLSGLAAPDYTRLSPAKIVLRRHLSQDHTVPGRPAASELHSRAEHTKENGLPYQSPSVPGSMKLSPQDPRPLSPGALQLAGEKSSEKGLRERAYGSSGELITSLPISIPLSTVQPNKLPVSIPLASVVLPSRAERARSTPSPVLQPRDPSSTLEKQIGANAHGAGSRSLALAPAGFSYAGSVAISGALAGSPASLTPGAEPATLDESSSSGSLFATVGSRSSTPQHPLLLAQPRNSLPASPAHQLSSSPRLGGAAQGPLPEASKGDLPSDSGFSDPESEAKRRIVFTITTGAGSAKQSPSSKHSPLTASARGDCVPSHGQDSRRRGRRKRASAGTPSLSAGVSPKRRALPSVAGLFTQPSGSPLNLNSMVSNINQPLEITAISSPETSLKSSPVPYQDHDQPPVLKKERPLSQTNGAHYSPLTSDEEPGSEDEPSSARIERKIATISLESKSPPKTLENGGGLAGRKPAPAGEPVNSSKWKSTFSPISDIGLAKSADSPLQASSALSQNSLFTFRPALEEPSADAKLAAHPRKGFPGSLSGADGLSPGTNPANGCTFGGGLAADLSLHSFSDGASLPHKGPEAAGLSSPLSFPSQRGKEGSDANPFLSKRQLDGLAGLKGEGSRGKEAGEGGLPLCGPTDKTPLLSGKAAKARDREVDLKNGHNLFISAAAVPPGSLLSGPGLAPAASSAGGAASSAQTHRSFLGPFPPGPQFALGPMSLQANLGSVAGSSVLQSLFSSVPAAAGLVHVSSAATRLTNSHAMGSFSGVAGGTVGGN
Histone-lysine N-methyltransferase, H3 lysine-79 specific (Homo sapiens), sequence (Q8TEK3 whole entry, looked up): as above

Cc1ncsc1-c1ccc([C@H](CC(=O)NCCCCCCNC(=O)COc2nc(N)nc(Nc3cc(S(N)(=O)=O)ccc3N[C@@H](c3cccc4c3OC(F)(F)O4)c3ncccc3Cl)n2)NC(=O)[C@@H]2C[C@@H](O)CN2C(=O)[C@@H](NC(=O)C2(F)CC2)C(C)(C)C)cc1
fold change (FC) [1]: 0.08 | Activity [2]: 93% | fold change (FC) [3]: 0.99 | fold change (FC) [4]: 1.13 | fold change (FC) [5]: 0.86 | fold change (FC) [6]: 0.03 | Activity [7]: inactive | inhibition [8]: > 95% | inhibition [9]: inactive | inhibition [10]: inactive | Activity [11]: Non-toxic
